Experiments:
[1] = target: hCXCR4 (Homo sapiens, UniProt P61073); assay: CXCL12^AF647 competition binding, Jurkat cells
Method: (§1) Binding affinity to human (h)CXCR4 and human (h)ACKR3 was investigated with a competition binding assay using CXCL12^AF647 (Almac, UK) as the tracer molecule. Jurkat cells (human T lymphocytic cell line, hCXCR4 positive) or U87.CD4.ACKR3 cells (human glioblastoma cell line, hACKR3 positive) were resuspended in assay buffer [Hank’s Balanced Salt Solution (HBSS, Thermo Fisher Scientific), 20 mM HEPES buffer, 0.2% bovine serum albumin (Sigma-Aldrich), pH 7.4] at 3 × 10^5 cells per sample and treated with increasing concentrations of compound at RT for 15 min. A fixed amount of CXCL12^AF647 (2.9 nM and 1.45 nM in case of hCXCR4 and hACKR3, respectively) was added and cells were incubated at RT for 30 min protected from light. Cells were finally fixed in 1% paraformaldehyde in DPBS and the CXCL12^AF647 binding signal [i.e., mean fluorescence intensity (MFI)] was quantified by flow cytometry (FACSCanto™; Becton Dickinson). Data were analyzed with FlowJo® Software. For all samples the background MFI (i.e., autofluorescence of untreated and unlabeled cells) was subtracted. The percentage inhibition for each compound concentration was calculated relative to the positive control (i.e., untreated cells exposed to CXCL12^AF647 only). Four parameter non-linear curve fitting (GraphPad Prism 9.0.2) was used to determine the IC50 value for binding inhibition.

[2] = set-up: method as in PMID 29627981; conditions: cited from earlier work
[3] = target: hACKR3 (Homo sapiens, UniProt P25106); assay: CXCL12^AF647 competition binding, U87.CD4.ACKR3 cells
hACKR3, sequence (P25106 whole entry): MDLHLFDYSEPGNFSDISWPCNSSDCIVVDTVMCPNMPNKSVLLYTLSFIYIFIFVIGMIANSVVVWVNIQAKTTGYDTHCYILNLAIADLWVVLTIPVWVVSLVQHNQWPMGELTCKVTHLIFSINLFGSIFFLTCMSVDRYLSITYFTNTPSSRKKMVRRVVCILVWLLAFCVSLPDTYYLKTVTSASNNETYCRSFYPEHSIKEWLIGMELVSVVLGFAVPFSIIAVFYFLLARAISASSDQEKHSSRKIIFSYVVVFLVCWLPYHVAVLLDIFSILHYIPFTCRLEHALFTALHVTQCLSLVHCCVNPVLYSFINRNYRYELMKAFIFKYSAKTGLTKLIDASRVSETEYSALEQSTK
Method: as §1

[4] = system: isoproterenol-induced cardiac fibrosis in mice; set-up: method as in PMID 29627981; conditions: isoproterenol-induced cardiac injury; cited from earlier work
[5] = set-up: method as in PMID 29627981; conditions: mice; cited from earlier work
[6] = system: bleomycin-induced lung fibrosis in C57BL/6J mice; assay: Bleomycin-induced lung fibrosis model; format: in vivo, mouse; conditions: 15 mg/kg/dose SC BID, day 21, vs bleomycin + 23% HPBCD
Method: A preclinical mouse model for bleomycin-induced lung fibrosis was performed at the Department of Metabolic Health Research, The Netherlands Organisation for Applied Scientific Research (TNO) (Leiden, The Netherlands). Thirty-eight male C57BL/6J mice were matched on body weight prior to the study and divided into three groups (experimental study design, Supplementary Figure S1b). At day 0, 10–12-week-old mice received a single oropharyngeal administration of bleomycin (0.04U/mouse) (group 2 and 3). Control mice (group 1) received phosphate buffered saline (PBS) instead. At day 0, bleomycin-treated mice received either compound 18a (15 mg/kg/dose, subcutaneous, twice daily, group 3), or its corresponding vehicle control (23% HPBCD, subcutaneous, twice daily, group 2)]. PBS-treated mice received 23% HPBCD throughout the study (subcutaneous, twice daily, group 1). At day 21, mice were sacrificed under isoflurane anesthesia and plasma samples and lung lobes were collected. As a primary endpoint the histology lung fibrosis score (modified Ashcroft score) was used based on a Masson’s Trichrome staining on cross-sections of the left lung lobe. As a secondary endpoint collagen content (hydroxyproline) was analyzed on the medial and accessory lobes by using a chromogenic assay according to the manufacturer’s instructions (QuickZyme Biosciences, Leiden, the Netherlands).

[7] = system: fibrosis-associated genes (lung mRNA); assay: qRT-PCR of fibrosis-associated genes in lung tissue; format: in vivo, mouse
Method: Total RNA was prepared from snap-frozen liver tissue (the lateral and medial right lobes and the caudate lobe; Supplementary Figure S1a) or lung tissue (cranial right lobe; Supplementary Figure S1b) after homogenization on ice in TRIZol. For quantitative qRT-PCR, cDNA was made from 0.5 μg of RNA using the GoScript reverse transcription system (Promega) according to the manufacturer’s protocol. QRT-PCR was performed (for 40 cycles) with the Quantstudio3 Applied Biosystems (ABI) system using Sybr green (ABI) followed by melting curve analysis. Expression was calculated using the delta threshold cycle (ΔCT) method with Gapdh as reference gene (previously validated as stable house-keeping gene in the CCl4 model and in the bleomycin model, current study, not shown). Forward (F) and reverse (R) primer sequences were (5’-3’): Gapdh: F: ccgcatcttcttgtgcagt, R: […]; Col1a1: F: […], R: […]; Ackr3: F: […], R: […]; Cxcr4: F: […], R: […]; Golm1: F: […], R: […]; Lgals3: F: […], R: […]; Unc93b1: F: […], R: […]; Slc15a3: F: […], R: […]; Sec24d: F: […], R: […]; Cxcl10: F: […], R: […]; and Clec4n: F: […], R: […]. Data are expressed as mean ± sem. […] The scaled counts were base log2-transformed and data were expressed as fold-change versus the reference condition (CCl4 + 23% HPBCD). […]

hCXCR4, sequence (P61073 whole entry): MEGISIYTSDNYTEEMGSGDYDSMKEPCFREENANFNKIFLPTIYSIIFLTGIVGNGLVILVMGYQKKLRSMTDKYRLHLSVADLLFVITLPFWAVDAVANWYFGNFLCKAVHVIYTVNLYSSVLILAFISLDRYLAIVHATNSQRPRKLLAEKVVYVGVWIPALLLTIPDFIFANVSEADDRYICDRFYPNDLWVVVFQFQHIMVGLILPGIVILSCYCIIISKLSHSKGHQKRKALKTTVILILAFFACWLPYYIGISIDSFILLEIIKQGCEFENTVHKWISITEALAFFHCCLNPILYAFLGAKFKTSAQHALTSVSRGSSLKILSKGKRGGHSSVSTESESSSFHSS

SMILES: CCc1ccn2ccnc2c1N1CCCN(C(CC(N)=O)C2CCN(C(=O)C3CC4CCC3O4)CC2)CC1 (stereo not drawn) [compound 18a]
- IC50 [1]: > 4000 nM
- free fraction in mouse plasma [2]: 34%
- IC50 ([3]; hACKR3, mean ± SD of three independent experiments): 20.5 ± 6.34 nM
- higher hACKR3 binding affinity compared to compound 18b ([3]; ratio of IC50 values): five-fold
- cardiac fibrosis [4]: protect mice from cardiac fibrosis
- oral bioavailability [5]: not orally bioavailable
- development of lung fibrosis (modified Ashcroft score, hydroxyproline) [6]: did not counteract the development of fibrosis
- Lgals3 expression in lung tissue ([7]; bleomycin model, day 21, qRT-PCR): similarly lowered
- number of these 8 genes similarly affected in lung ([7]; bleomycin-exposed lungs, day 21): 1

Source: publication PMC9106635, “Stimulation of the atypical chemokine receptor 3 (ACKR3) by a small-molecule agonist attenuates fibrosis in a preclinical liver but not lung injury model” (Cellular and Molecular Life Sciences: CMLS, 2022)
